Data reported in patent US11970474B2, “Substituted benzodiazoles and use thereof in therapy” (THOMAS HELLEDAYS STIFTELSE FÖR MEDICINSK FORSKNING, priority 2018, dated 2024).
Like-named read-outs stand apart in the source and are kept apart here.

Key:
OGG1 = OGG1 (Homo sapiens (Human), UniProt O15527); test: In vitro OGG1 activity assay; format: biochemical; settings: 800 pM OGG1 enzyme, 2 nM human APEX1, 10 nM 8-oxoA:C substrate
Summary of the method: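 Read-out is fluorescein fluorescence, with compounds in DMSO added first, then enzyme and substrate. OGG1 excises its substrate base from a quenched fluorophore-labelled duplex, and surplus APEX1 cuts the resulting apurinic site. The duplex then melts and fluorescence rises in proportion to glycosylase activity.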

MLE12 cells = test: Cell viability assay in MLE12 cells (resazurin); format: cell-based, mouse; settings: TNF-α 20 ng/ml, resazurin added after 24 hours culture
Summary of the method: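 MLE12 cells (7500 cells/well) were seeded onto 11-point duplicate compound dose-responses, with TNF-α (final 20 ng/ml) added after 1 hour at 37° C. After 24 hours, resazurin was added for 6 hours and resorufin fluorescence read (ex544 nm/em595 nm). EC50 values were calculated by curve fitting.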

CCL2 = test: Mouse CCL2 assay in MLE12 cells; format: cell-based
Summary of the method: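 CCL2 in supernatants was quantified by two-antibody HTRF FRET, read at 620 and 665 nm after overnight RT incubation, with IC50 derived from delta ratios. Cells were SV40-transformed mouse MLE12, treated with duplicate 6-point compound series for 1 h before 30 h TNF-α (20 ng/ml final) stimulation.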

[1] = Mus musculus, MLE12, 30 h, MLE12 cells, TNF-α 20 ng/ml, supernatant after 30 hours, HTRF, read-out: CCL2 (EC50)

Sequence of OGG1 (O15527 whole entry): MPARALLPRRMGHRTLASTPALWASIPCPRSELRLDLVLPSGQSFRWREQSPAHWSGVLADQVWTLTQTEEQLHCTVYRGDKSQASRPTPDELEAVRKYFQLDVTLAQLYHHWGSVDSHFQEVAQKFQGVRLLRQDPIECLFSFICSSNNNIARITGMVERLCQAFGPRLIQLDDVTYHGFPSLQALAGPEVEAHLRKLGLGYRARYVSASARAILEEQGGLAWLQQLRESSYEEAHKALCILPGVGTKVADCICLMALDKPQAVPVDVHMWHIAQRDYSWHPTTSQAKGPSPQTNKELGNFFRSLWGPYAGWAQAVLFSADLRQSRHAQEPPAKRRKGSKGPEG

Row | SMILES | IC50 (OGG1) [nM] | IC50 (MLE12 cells; Mus musculus, MLE12, 24 h) [µM] | EC50 (CCL2; [1]) [nM] | IC50 (MLE12 cells) [µM] | EC50 (CCL2; MLE12 cells, TNF-α 20 ng/ml, supernatant after 30 hours, HTRF, read-out: CCL2 (EC50)) [nM] | IC50 (MLE12 cells; Mus musculus) [µM] | EC50 (CCL2; Mus musculus, MLE12, 30 h, read-out: CCL2 (EC50, nM)) [nM]
1 | O=C(Nc1ccc(Cl)c(F)c1)N1C2CCC1CC(n1c(=O)[nH]c3c(-c4ccc(CO)nc4)cccc31)C2 (stereo not drawn) [Example 94, N-(4-chloro-3-fluorophenyl)-3-{4-[6-(hydroxymethyl)pyridin-3-yl]-2-oxo-2,3-dihydro-1H-1,3-benzodiazol-1-yl}-(endo)-8-azabicyclo[3.2.1]octane-8-carboxamide] | 105 | 8.45 | 20200 | – | – | – | –
2 | O=c1[nH]c2c(Br)cccc2n1[C@H]1CC[C@@H](C(=O)Nc2ccc(Cl)cc2)CC1 [Example 119, (Cis)-4-(4-bromo-2-oxo-2,3-dihydro-1H-1,3-benzodiazol-1-yl)-N-(4-chlorophenyl)cyclohexane-1-carboxamide] | 72 | 5.07 | 17700 | – | – | – | –
3 | CN(C)CCNC(=O)c1cnn(-c2cccc3c2[nH]c(=O)n3C2CCN(C(=O)Nc3ccc(I)cc3)CC2)c1 [Example 89, 4-(4-(4-((2-(Dimethylamino)ethyl)carbamoyl)-1H-pyrazol-1-yl)-2-oxo-2,3-dihydro-1H-benzo[d]imidazol-1-yl)-N-(4-iodophenyl)piperidine-1-carboxamide 2,2,2-trifluoroacetate] | 90 | 25.1 | 47100 | – | – | – | –
4 | COc1cccc2c1[nH]c(=O)n2[C@H]1CC[C@@H](C(=O)Nc2ccc3cc[nH]c3c2)CC1 [Example 209, Cis-N-(1H-indol-6-yl)-4-(4-methoxy-2-oxo-2,3-dihydro-1H-1,3-benzodiazol-1-yl)cyclohexane-1-carboxamide] | 402 | 21.5 | 34900 | – | – | – | –
5 | Cc1cc(NC(=O)[C@H]2CC[C@@H](n3c(=O)[nH]c4c(Br)cccc43)CC2)ccc1O [Example 194, Cis-4-(4-bromo-2-oxo-2,3-dihydro-1H-1,3-benzodiazol-1-yl)-N-(4-hydroxy-3-methylphenyl)cyclohexane-1-carboxamide] | 17.2 | 15.6 | 33500 | – | – | – | –
6 | COc1cc(NC(=O)[C@H]2CC[C@@H](n3c(=O)[nH]c4c(C5=CCNCC5)cccc43)CC2)ccc1C [Example 311, Cis-N-(3-methoxy-4-methylphenyl)-4-[2-oxo-4-(1,2,3,6-tetrahydropyridin-4-yl)-2,3-dihydro-1H-1,3-benzodiazol-1-yl]cyclohexane-1-carboxamide] | 4.49 | 13.8 | 14500 | – | – | – | –
7 | COc1ccc(NC(=O)[C@H]2CC[C@@H](n3c(=O)[nH]c4c(Br)cccc43)CC2)cc1OC [Example 192, Cis-4-(4-bromo-2-oxo-2,3-dihydro-1H-1,3-benzodiazol-1-yl)-N-(3,4-dimethoxyphenyl)cyclohexane-1-carboxamide] | 34.2 | 15.7 | 32900 | – | – | – | –
8 | COC(=O)c1cccc2c1[nH]c(=O)n2[C@H]1CC[C@@H](C(=O)Nc2ccc(C)c(OC)c2)CC1 [Example 258, Methyl 2-oxo-1-[cis-4-[(3-methoxy-4-methylphenyl)carbamoyl]cyclohexyl]-2,3-dihydro-1H-1,3-benzodiazole-4-carboxylate] | 5.83 | 11.3 | 42700 | – | – | – | –
9 | O=C(Nc1ccc(Cl)c(Cl)c1)N1CCC(n2c(=O)[nH]c3c(-c4cncnc4)cccc32)CC1 [Example 37, N-(3,4-dichlorophenyl)-4-[2-oxo-4-(pyrimidin-5-yl)-2,3-dihydro-1H-1,3-benzodiazol-1-yl]piperidine-1-carboxamide] | 1590 | 7.03 | 17400 | – | – | – | –
10 | COc1ccc(NC(=O)[C@H]2CC[C@@H](n3c(=O)[nH]c4c(F)cccc43)CC2)cc1C [Example 212, Cis-4-(4-fluoro-2-oxo-2,3-dihydro-1H-1,3-benzodiazol-1-yl)-N-(4-methoxy-3-methylphenyl)cyclohexane-1-carboxamide] | 9.43 | 16.9 | 34200 | – | – | – | –
11 | COC(=O)c1cc(NC(=O)[C@H]2CC[C@@H](n3c(=O)[nH]c4c(Br)cccc43)CC2)ccc1OC [Example 151, Methyl 2-methoxy-5-[(cis)-4-(4-bromo-2-oxo-2,3-dihydro-1H-1,3-benzodiazol-1-yl)cyclohexaneamido]benzoate] | 526 | 17.1 | 5250 | – | – | – | –
12 | COc1ncc(NC(=O)[C@H]2CC[C@@H](n3c(=O)[nH]c4c(Br)cccc43)CC2)cc1Cl [Example 202, Cis-4-(4-bromo-2-oxo-2,3-dihydro-1H-1,3-benzodiazol-1-yl)-N-(5-chloro-6-methoxypyridin-3-yl)cyclohexane-1-carboxamide] | 52.8 | 7.97 | 11600 | – | – | – | –
13 | COc1cc(NC(=O)N2CCC(n3c(=O)[nH]c4c(Br)cccc43)CC2)ccc1C [Example 75, 4-(4-Bromo-2-oxo-2,3-dihydro-1H-1,3-benzodiazol-1-yl)-N-(3-methoxy-4-methylphenyl)piperidine-1-carboxamide] | 223 | 10.4 | 34100 | 12.8 | 39400 | – | –
14 | Cc1ccc(NC(=O)[C@H]2CC[C@@H](n3c(=O)[nH]c4c(Br)cccc43)CC2)c(F)c1 [Example 153, (Cis)-4-(4-bromo-2-oxo-2,3-dihydro-1H-1,3-benzodiazol-1-yl)-N-(2-fluoro-4-methylphenyl)cyclohexane-1-carboxamide] | 383 | 24.6 | 44000 | – | – | – | –
15 | COc1cc(NC(=O)[C@H]2CC[C@@H](n3c(=O)[nH]c4c(C(=O)NCCN5CCOCC5)cccc43)CC2)ccc1C [Example 272, N-[2-(Morpholin-4-yl)ethyl]-2-oxo-1-[cis-4-[(3-methoxy-4-methylphenyl)carbamoyl]cyclohexyl]-2,3-dihydro-1H-1,3-benzodiazole-4-carboxamide] | 4.11 | 27.1 | 35700 | – | – | – | –
16 | COc1cc(NC(=O)[C@H]2CC[C@@H](n3c(=O)[nH]c4c(C(=O)NCC5CCCO5)cccc43)CC2)ccc1C (stereo partly drawn) [Example 273, 2-Oxo-N-[(oxolan-2-yl)methyl]-1-[cis-4-[(3-methoxy-4-methylphenyl)carbamoyl]cyclohexyl]-2,3-dihydro-1H-1,3-benzodiazole-4-carboxamide] | 17.5 | 19.2 | 32600 | – | – | – | –
17 | COc1cc(NC(=O)[C@H]2CC[C@@H](n3c(=O)[nH]c4c(OCCCN(C)C)cccc43)CC2)ccc1C [Example 306, Cis-4-{4-[3-(dimethylamino)propoxy]-2-oxo-2,3-dihydro-1H-1,3-benzodiazol-1-yl}-N-(3-methoxy-4-methylphenyl)cyclohexane-1-carboxamide] | 2.82 | 7.15 | 8080 | – | – | – | –
18 | COc1ccc(NC(=O)[C@H]2CC[C@@H](n3c(=O)[nH]c4c(Br)cccc43)CC2)cc1F [Example 164, (Cis)-4-(4-bromo-2-oxo-2,3-dihydro-1H-1,3-benzodiazol-1-yl)-N-(3-fluoro-4-methoxyphenyl)cyclohexane-1-carboxamide] | 43 | 12.9 | 33900 | – | – | – | –
19 | O=C(Nc1ccc(Cl)c(Cl)c1)N1C2CCC1CC(n1c(=O)[nH]c3c(Br)cccc31)C2 (stereo not drawn) [Example 72, 3-(4-Bromo-2-oxo-2,3-dihydro-1H-1,3-benzodiazol-1-yl)-N-(3,4-dichlorophenyl)-(endo)-8-azabicyclo[3.2.1]octane-8-carboxamide] | 67 | – | – | – | – | 6.31 | 21500
20 | COc1cc(NC(=O)[C@H]2CC[C@@H](n3c(=O)[nH]c4c(O)cccc43)CC2)ccc1C [Example 227, Cis-4-(4-hydroxy-2-oxo-2,3-dihydro-1H-1,3-benzodiazol-1-yl)-N-(3-methoxy-4-methylphenyl)cyclohexane-1-carboxamide] | 17.9 | 16.5 | 27500 | – | – | – | –
21 | COc1cc(NC(=O)[C@H]2CC[C@@H](n3c(=O)[nH]c4c(N5CCC(NC(=O)OC(C)(C)C)C5)cccc43)CC2)ccc1C (stereo partly drawn) [Example 281, tert-Butyl N-(1-{2-oxo-1-[cis-4-[(3-methoxy-4-methylphenyl)carbamoyl]cyclohexyl]-2,3-dihydro-1H-1,3-benzodiazol-4-yl}pyrrolidin-3-yl)carbamate] | 149 | 1.83 | 8820 | – | – | – | –
22 | O=c1[nH]c2c(Br)cccc2n1[C@H]1CC[C@@H](C(=O)Nc2ccccc2)CC1 [Example 127, (Cis)-4-(4-bromo-2-oxo-2,3-dihydro-1H-1,3-benzodiazol-1-yl)-N-phenylcyclohexane-1-carboxamide] | 1220 | 16.2 | 28700 | – | – | – | –
23 | COc1cc(NC(=O)[C@H]2CC[C@@H](n3c(=O)[nH]c4c(N5CC[C@H](N(C)C)C5)cccc43)CC2)ccc1C [Example 295, Cis-4-{4-[(3S)-3-(dimethylamino)pyrrolidin-1-yl]-2-oxo-2,3-dihydro-1H-1,3-benzodiazol-1-yl}-N-(3-methoxy-4-methylphenyl)cyclohexane-1-carboxamide] | 9.62 | 10.4 | 11100 | – | – | – | –
